Consider 18 compounds from patent US11691972B2, “Compounds for targeted degradation of BRD9” (C4 Therapeutics, Inc., priority 2020, dated 2023).

One may read the DC50 as the concentration giving 50% degradation.

For the assay, the target named is T1, BRD9 (Homo sapiens, UniProt Q9H8M2).
T1 sequence (Q9H8M2 1-597): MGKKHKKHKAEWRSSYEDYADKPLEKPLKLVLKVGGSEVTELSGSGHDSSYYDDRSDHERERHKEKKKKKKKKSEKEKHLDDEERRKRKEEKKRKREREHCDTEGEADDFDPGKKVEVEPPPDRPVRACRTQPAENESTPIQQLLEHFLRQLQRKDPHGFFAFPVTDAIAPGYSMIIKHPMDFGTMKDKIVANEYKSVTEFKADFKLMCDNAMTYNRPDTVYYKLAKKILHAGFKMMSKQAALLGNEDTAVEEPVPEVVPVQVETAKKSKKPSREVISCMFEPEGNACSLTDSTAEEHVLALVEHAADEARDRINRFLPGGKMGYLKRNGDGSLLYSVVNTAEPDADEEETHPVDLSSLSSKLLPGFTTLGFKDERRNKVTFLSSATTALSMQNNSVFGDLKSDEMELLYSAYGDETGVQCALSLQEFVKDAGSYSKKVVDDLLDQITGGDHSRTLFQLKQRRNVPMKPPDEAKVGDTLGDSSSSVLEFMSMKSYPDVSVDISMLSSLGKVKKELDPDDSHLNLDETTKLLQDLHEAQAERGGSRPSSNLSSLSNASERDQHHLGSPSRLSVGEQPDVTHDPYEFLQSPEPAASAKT
The assay is described as follows: HiBiT BRD9 degradation assay in 293T.166 (BRD9-HiBiT) cells. The following applies: 293T.166 cells, 2.0 hours, class symbols, read-out: HiBiT-Degradation 293T.166 BRD9 2.0 hours (DC50). Further details: endogenously expressing BRD9 with HiBiT fusion tag via CRISPR; host or cells: 293T.166 (BRD9-HiBiT), also expressing LgBiT ectopically. Format: cell-based. The essentials: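 293T.166 cells carrying endogenous CRISPR BRD9-HiBiT and expressing LgBiT treated 2 h at 37° C. with compounds, 11-point half-log titration from 10 μM in duplicate. Remaining BRD9 measured as lytic HiBiT luminescence; untreated cells as negative control, no-reagent wells as positive control.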

Where two headings read alike, the source gives them in different places.

Consider `COc1cc(-c2cn(C)c(=O)c(C)c2C)cc(Cl)c1CN1CCC(C2CCN(c3ccc(NC4CCC(=O)NC4=O)cc3F)CC2)C(F)(F)C1` (stereo not drawn) [Compound 197, 3-[4-[4-[1-[[2-chloro-6-methoxy-4-(1,4,5-trimethyl-6-oxo-3-pyridyl)phenyl]methyl]-3,3-difluoro-4-piperidyl]-1-piperidyl]-3-fluoro-anilino]piperidine-2,6-dione], for which the DC50 (Table 1) is under 100 nM.
For the compound `COc1cc(-c2cn(C)c(=O)c(C)c2C)cnc1CN1CCC(N2CCN(c3ccc(NC4CCC(=O)NC4=O)cc3F)CC2)C(F)(F)C1` (stereo not drawn) [Compound 260, 3-[4-[4-[3,3-difluoro-1-[[3-methoxy-5-(1,4,5-trimethyl-6-oxo-3-pyridyl)-2-pyridyl]methyl]-4-piperidyl]piperazin-1-yl]-3-fluoro-anilino]piperidine-2,6-dione], under “Table 2”, the DC50 was under 100 nM.
`COc1cc(-c2cn(C)c(=O)c(C)c2C)cc(Cl)c1CN1CCC(C2CCN(c3ccc(NC4CCC(=O)NC4=O)cc3F)CC2)C(F)(F)C1` (single isomer, unassigned) [Compound 258]: the DC50 (Table 2) was 100 to 500 nM.
As to `COc1cc(-c2cn(C)c(=O)c3cnccc23)cc(Cl)c1CN1CCC(C2CCN(c3ccc(NC4CCC(=O)NC4=O)nc3)CC2)CC1` (stereo not drawn) [Compound 89], for the setting “Table 1”, the DC50 was under 100 nM.
In the case of `COc1cc(-c2cn(C)c(=O)c3[nH]ncc23)cc(OC)c1CN1CCN(C(=O)CN2CCN(c3ccc(NC4CCC(=O)NC4=O)cc3F)CC2)C(C)(C)C1` (stereo not drawn) [Compound 111, 3-[4-[4-[2-[4-[[2,6-dimethoxy-4-(6-methyl-7-oxo-1H-pyrazolo[3,4-c]pyridin-4-yl)phenyl]methyl]-2,2-dimethyl-piperazin-1-yl]-2-oxo-ethyl]piperazin-1-yl]-3-fluoro-anilino]piperidine-2,6-dione], the DC50 (Table 1) is under 100 nM.
As for `COc1cc(-c2cn(C)c(=O)c3[nH]ncc23)cc(OC)c1CN1CCC(C2CCN(c3ccc(NC4CCC(=O)NC4=O)cc3)CC2)CC1` (stereo not drawn) [Compound 70, 3-[4-[4-[1-[[2,6-dimethoxy-4-(6-methyl-7-oxo-1H-pyrazolo[3,4-c]pyridin-4-yl)phenyl]methyl]-4-piperidyl]-1-piperidyl]anilino]piperidine-2,6-dione], where the note is “Table 1”, the DC50 is under 100 nM.
As for `COc1cc(-c2cn(C)c(=O)c(C)c2C)cc(Cl)c1CN1CCC(N2CCN(c3ccc(NC4CCC(=O)NC4=O)cc3F)CC2)C(F)(F)C1` (stereo not drawn) [Compound 190], where the note is “Table 1”, the DC50 is under 100 nM.
`COc1cc(-c2cn(C)c(=O)c(C)c2C)cc(OC)c1CN1C2CCC1CN(C(=O)CC1CCN(c3ccc(NC4CCC(=O)NC4=O)nc3)CC1)C2` (stereo not drawn) [Compound 272]: the DC50 (Table 2) was under 100 nM.
For the compound `COc1cc(-c2cn(C)c(=O)c3cnccc23)cc(OC)c1C(=O)N1Cc2cccc(CC3CCN(c4ccc(NC5CCC(=O)NC5=O)cc4F)CC3)c2C(F)(F)C1` (stereo not drawn) [Compound 234], under “Table 1”, the DC50 is under 100 nM.
For the compound `CN(C(=O)N1CCC(c2ccc(NC3CCC(=O)NC3=O)cc2)CC1)C1CCN(Cc2ccc(-c3cn(C)c(=O)c4cc(F)ccc34)cc2OC(F)(F)F)CC1` (stereo not drawn) [Compound 114], the DC50 (Table 1) was under 100 nM.
Take `COc1cc(-c2cn(C)c(=O)c3[nH]ncc23)cc(OC)c1CN1CCN(C(=O)CC2CCN(c3ccc(NC4CCC(=O)NC4=O)cc3Cl)CC2)CC1` (stereo not drawn) [Compound 67]: where the note is “Table 1”, the DC50 was under 100 nM.
`COc1cc(-c2cn(C)c(=O)c(C)c2C)cc(Cl)c1C(=O)N1CCC(N2CCC(c3ccc(NC4CCC(=O)NC4=O)cc3)C(F)(F)C2)CC1` (stereo not drawn) [Compound 229]: the DC50 (Table 1) is under 100 nM.
On the same count and under the same terms, with `COc1cc(-c2cn(C)c(=O)c3[nH]ncc23)cc(Cl)c1CN1CCC(CC(=O)N2CCC(c3ccc(NC4CCC(=O)NC4=O)cc3)CC2)CC1` (stereo not drawn) [Compound 43] the figure was under 100 nM; with `COc1cc(-c2cn(C)c(=O)c3[nH]ncc23)cc(Cl)c1CN1CCN(C(=O)CC2CCN(c3ccc(NC4CCC(=O)NC4=O)cc3F)CC2)CC1` (stereo not drawn) [Compound 66], under 100 nM.
Regarding `COc1cc(-c2cn(C)c(=O)c(C)c2C)cc(Cl)c1CN1CCc2c(CC3CCN(c4ccc(NC5CCC(=O)NC5=O)nc4)CC3)cccc2C1` (stereo not drawn) [Compound 264, 3-[[5-[4-[[2-[[2-chloro-6-methoxy-4-(1,4,5-trimethyl-6-oxo-3-pyridyl)phenyl]methyl]-3,4-dihydro-1H-isoquinolin-5-yl]methyl]-1-piperidyl]-2-pyridyl]amino]piperidine-2,6-dione], where the note is “Table 2”, the DC50 is under 100 nM.
On to `COc1cc(-c2cn(C)c(=O)c3[nH]ncc23)cc(OC)c1CN1CCC(OC(=O)N2CCC(c3ccc(NC4CCC(=O)NC4=O)cc3)CC2)CC1` (stereo not drawn) [Compound 94, [1-[[2,6-dimethoxy-4-(6-methyl-7-oxo-1H-pyrazolo[3,4-c]pyridin-4-yl)phenyl]methyl]-4-piperidyl] 4-[4-[(2,6-dioxo-3-piperidyl)amino]phenyl]piperidine-1-carboxylate], for which the DC50 (Table 1) is under 100 nM.
Still for that read-out and setting: with `COc1cc(-c2cn(C)c(=O)c3[nH]ncc23)cc(Cl)c1C(=O)N1CCC(C2CCN(c3ccc(NC4CCC(=O)NC4=O)cc3F)CC2)CC1` (stereo not drawn) [Compound 216] the figure was under 100 nM.
As for `COc1cc(-c2cn(C)c(=O)c3[nH]ncc23)cc(Cl)c1CN1CCC(C(=O)Nc2ccc(NC3CCC(=O)NC3=O)cc2F)CC1` (stereo not drawn) [Compound 169, 1-[[2-chloro-6-methoxy-4-(6-methyl-7-oxo-1H-pyrazolo[3,4-c]pyridin-4-yl)phenyl]methyl]-N-[4-[(2,6-dioxo-3-piperidyl)amino]-2-fluoro-phenyl]piperidine-4-carboxamide], the DC50 (Table 1) is under 100 nM.
